The values that follow come from PubChem BioAssay (NCI).

Assay in all cases: growth of human tumour cells (NCI), 48 h
Assay [1] relates to BT-549 breast.
The subject of assay [2] is COLO 205 colon.
Assay [3] has as its system DU-145 prostate.
For assay [4], the system named is HOP-92 NSCLC.
Assay [5] deals with MDA-MB-435.
Assay [6] concerns OVCAR-5 ovarian.
Assay [7] deals with SN12C renal.
Assay [8] has as its system SR leukemia.
Assay [9] has as its system UACC-62 melanoma.
The subject of assay [10] is MALME-3M melanoma.

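Growth conditions: 96-well plates. Treatment: test compound, 48 hours, 5 concentrations. Analysis: linear interpolation between bracketing concentrations; unreached endpoints set to highest concentration. TGI is the concentration that stops growth completely.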 Bounds are passed on as bounds.

In the case of `COC(=O)CN(CC(=O)NCCCBr)C1CCCCC1N(CC(=O)OC)CC(=O)OC` (stereo not given), the TGI in assay [1], in assay [2], in assay [3], in assay [4], in assay [5] and in assay [6] was more than 100 µM in each case. Besides, the TGI in [7], in [8] and in assay [9] was more than 100 µM throughout.

For the molecule `C[C@@]1(CCCCCCCCCCc2ccccc2)C[C@@]2(C)OC(=O)C[C@H]2OO1`, the TGI is 0.979 µM in assay [1]; 3.37 µM in [2]; more than 4.64 µM in [3]; 2.16 µM in [4]; 3 µM in assay [10]; 3.4 µM in assay [5]. Further, the TGI in assay [6] stood at 3.94 µM; in assay [7] it was 10.4 µM; in assay [8] it was 2.97 µM; in assay [9], 4.35 µM.

With `CC(C)C(Nc1ncnc2nc[nH]c12)C(=O)O` (stereo not given), the TGI in assay [1], in assay [2], in assay [3], in assay [4], in assay [10] and in [5] was more than 100 µM throughout. The TGI in assay [6], in [7], in assay [8] and in [9] was more than 100 µM each time.

Turning to `O=c1[nH]c2ccccc2c(O)c1Cc1ccccc1`, the TGI in assay [1], in [2], in assay [3], in assay [4], in assay [10] and in assay [5] was more than 100 µM each time. The TGI in [6], in assay [7] and in assay [8] was more than 100 µM in each case.

Turning to `CC(=O)C1=C(C)O[C@@H]2O[C@H](COCc3ccccc3)[C@@H](OCc3ccccc3)[C@H](O)[C@@H]2S1`, the TGI in assay [1] was 46.4 µM; in assay [2], 54.5 µM; in assay [3] it was 58.9 µM; in assay [4], 44.2 µM; in [10], 44.5 µM; in [5], 38 µM. Further, the TGI in [6] worked out at 84.1 µM; in [7], 37.6 µM; in assay [8], 46.1 µM; in [9], 31.8 µM.

For the molecule `Cn1c(-c2ccc[se]2)ccc1-c1ccc(C=O)[se]1`, the TGI in assay [1] was 65.4 µM; in assay [2] it was more than 49.4 µM; in assay [3] it was more than 100 µM; in assay [4], more than 82.1 µM; in [5], more than 100 µM; in [7], more than 67.9 µM. Further, the TGI in [8] is more than 100 µM.

As for `Cc1cc2c(c(C(=O)NCC(=O)N[C@@H](C)C(=O)OCc3ccccc3)c1)Oc1c(cc(C)cc1C(=O)NCC(=O)N[C@@H](C)C(=O)OCc1ccccc1)S2`, the TGI was more than 100 µM in assay [1]; more than 100 µM in assay [2]; more than 100 µM in assay [3]; 44.2 µM in assay [10]; more than 100 µM in assay [5]; more than 100 µM in assay [6]. For the same molecule, the TGI in assay [7], in assay [8] and in [9] was more than 100 µM each time.

For `COc1cc(CC(C)=O)cc(OC)c1`, the TGI in assay [1], in [2], in assay [3], in [4], in assay [10] and in assay [5] was more than 100 µM each time. The TGI in assay [6] is more than 100 µM; in assay [7], more than 100 µM; in assay [8], 85.4 µM; in assay [9] it was more than 100 µM.

For the molecule `CN(c1ccccc1)S(=O)(=O)c1ccc([N+](=O)[O-])cc1`, the TGI in assay [1], in assay [2], in assay [3], in assay [10], in assay [5] and in assay [6] was more than 100 µM each time. The TGI in assay [7] and in assay [8] was more than 100 µM in each case.

For `CC(C)NC(=O)OCc1c(COC(=O)NC(C)C)c(-c2ccc[n+](COC(=O)Cc3ccccc3)c2)n2c1CCC2`, the TGI in assay [1] is 66.6 µM; in [2], more than 100 µM; in assay [3], 67.7 µM; in assay [4], 46.2 µM; in [10], 97.2 µM; in assay [5], more than 100 µM. The TGI in [6] is more than 100 µM; in assay [7], more than 100 µM; in assay [8], more than 100 µM; in [9] it was 44.7 µM.

As to `COc1ccc2c(c1)CC[C@@H]1C2CC[C@]2(C)C(=O)N(CCN(C)C)C(=O)CC12` (stereo not given in full), the TGI in assay [1], in assay [2], in [3], in assay [4], in assay [10] and in assay [5] was more than 100 µM throughout. Besides, the TGI in assay [6], in assay [7], in [8] and in assay [9] was more than 100 µM throughout.

Regarding `Cc1ccc(/C=C/C(=O)Oc2ccc(/C=C3\CCC/C(=C\c4ccc(OC(=O)/C=C/c5ccc(C)cc5)cc4)C3=O)cc2)cc1`, the TGI in [1], in [2], in assay [3], in assay [4], in [5] and in assay [6] was more than 100 µM each time. Further, the results for the TGI in [7], in [8] and in assay [9] were more than 100 µM, 96.4 µM and more than 100 µM, respectively.

As to `O=C(CCBr)N1CCN(C(=O)CCBr)CC1`, the TGI was 85.3 µM in assay [1]; 225 µM in [2]; 496 µM in assay [3]; 284 µM in [4]; 206 µM in [10]; 245 µM in assay [5]. In addition, the TGI was 189 µM in assay [6], 169 µM in assay [7], 174 µM in assay [8] and 73.3 µM in assay [9].

For `O[C@@H]1C[C@H](Cl)c2c(Cl)sc(Cl)c21`, the TGI in assay [1], in assay [2], in assay [3], in assay [10], in assay [5] and in [6] was more than 100 µM throughout. Also, the TGI in [7], in assay [8] and in [9] was more than 100 µM each time.
